Laboratory results published in US8324202B2, “5-phenyl-1H-benzo [E] [1,4] diazepine compounds substituted with an hydroxamic acid group as histone deacetylase inhibitors” (Universita Degli Studi di Firenze, priority 2007, dated 2012).
Values joined by “and” are separate entries in the source; they are usually repeats but may differ in a detail not shown here. Identical values can stand only once. Like-named read-outs stand apart in the source and are kept apart here.

Tests used:
Type in all cases: cell-based, human
[1] = test system: NB4 cells; assay: Granulocytic differentiation, NBT reduction assay, alone or with ATRA; conditions: for % of NBT+ cells: three days; for effect on granulocytic differentiation / NBT positive cells, in words: alone or in combination with 20 nM ATRA
Procedure: The analysis of functional myeloid differentiation induced by compounds of the invention was accomplished by Nitro-Blu tetrazolium (NBT) reduction assay as described below. Cell suspension (approximately 10^5/mL) were incubated in the presence of 0.25 mg/mL NBT and 500 ng of PMA (Phorbol-12-Myristate 13-acetate) (Sigma) at 37° C. for 30 minutes. Granulocyte or monocyte differentiated cell were capable of reducing NBT to dark formazan precipitate (blu positive cells). NBT positive cells were counted on Burker chamber and expressed as percentage of total cell population.
(§1) • Compounds (II) in racemic form and enantiomers S or R. • Compounds (III) in racemic form and enantiomers S or R. • Compounds (II) with R1 and R2=hydrogen were tested for their capability to synergize with ATRA and for their ability to induce granulocyte differentiation in the human promyelocytic cell line NB4. ATRA at the final concentration of 1 μM is usually employed to induce granulocyte differentiation in NB4 cells.
(§2) NB4 cells were incubated for three days in presence of the compounds listed above, alone or in combination with ATRA. Granulocyte differentiation of leukemic cells was determined by (a) Nitro-Blu tetrazolium (NBT) reduction to dark formazan precipitate (blu positive cells) counting NBT positive cells on Burker chamber and (b) cytofluorimetric analysis of CD11b membrane expression (granulocyte marker, see example 32).

[2] = test system: NB4 cells; assay: Granulocytic differentiation, cytofluorimetric analysis of CD11b membrane expression, alone or with ATRA; conditions: for % of CD11b+ cells: three days
Procedure: Identification of markers of myeloid maturation was determined by flow cytometry by labelling cells with PE-conjugated antibody and FITC-conjugated antibody to CD11b (granulocyte marker) and CD14 (monocyte marker) respectively (Becton-Dickinson). Cell suspension aliquots (1×10^5 cells) were washed with cell wash buffer (Becton-Dickinson) and incubated with antibodies for 30 minutes in ice. After the incubation cells, resuspended in 0.3 mL of buffer containing Actinomycin D (Becton-Dickinson) to evaluate cell viability, were submitted to the cytofluorimetric analysis (FACScan, Becton-Dickinson). Cells incubated with appropriately labeled isotype controls were used to gate nonspecific fluorescence signal.
as §1, §2

[3] = test system: acetylated H4 histone; assay: Histone deacetylase inhibition: western blot for acetylated histone H4 in cells incubated 6 hours with drug; conditions: for Acetyl-H4 densitometric value: 6 hours, untreated = 0; for H4 histone acetylating activity, in words: summary in description
Procedure: (§3) The new described compounds were tested for their ability to inhibit the histone deacetylase activity by western blot for the acetylated isoforms of histone H3 and H4 and also to induce growth arrest in cancer cells by activating apoptosis and/or cell differentiation. Initially, biological activities of newly synthesized HDACi were assessed by using the human acute promyelocytic leukemia cell line NB4, as the experimental model. Cells were maintained in RPMI (Bio-Whittaker Europe, Verviers, Belgio) supplemented with 10% of fetal calf serum (FCS, Boehringer Mannheim, Germania) and 2 mM glutamine (Merck, Darmstadt, Germania) at 37° C. in a humidified atmosphere of 5% CO2. Cells were counted in a Burker chamber and cells viability was assessed by the trypan blu exclusion test.
(§4) Cells, obtained as described above, were harvested in sterile plates (Falcon, Becton Dickinson, Franklin Lakes, N.J.) at density of 6×10^5/mL, and incubated for 6 hours with increasing drug concentration of single compounds. Then, the cells were lysated with RIPA buffer (50 mM Tris-HCl pH 7.4, 150 mM NaCl, 1% Nonidet P-40, 1 mM EDTA plus protease inhibitor cocktail (Protease Inhibitor Cocktail Set III, n° cat. 539134, Calbiochem, Merck, Darmstadt, Germany) and sonicated (Labsonic 1510) twice for 15s pulses at 1-2 Watts in ice. Protein concentration of cell extracts was determined according to the bicinchoninic acid colorimetric method (BCA, Pierce, Rockford, USA) by using serum bovine albumin as the standard (BSA, Sigma, Steinheim, Germania). Equal amounts of protein (20-40 μg/20-30 μL/well) were separated on NuPAGE Bis-Tris 12% gel (Novex, Invitrogen, Carlsbad, Calif.) 10% and transferred to nitrocellulose membranes (Pro-Bind, pore diameter=0.45 μm; Amersham Pharmacia). Then membranes, incubated in phosphate buffer saline (PBS) with 6% defatted dry milk as blocking solution to saturate unspecific binding sites, were probed overnight at 4° C. with primary antibodies (1;1000 dilution in PBS) raised against acetylated H4 a H3 histone isoforms (Upstate Technologies, Lake Placid, N.Y., USA). […] The experiment was performed with the compound (II) S form, where R1 and R2 can be independently a methyl group or hydrogen.

[4] = test system: NB4 cells; assay: Cytostatic and apoptotic activity, Annexin-V-FLUOS/propidium iodide flow cytometry, 48 hours; conditions: for IC50: 48 hours, graphic extrapolation of Annexin-V results, viable cells over control, read-out: IC50 (drug concentration reducing cell density or viability by 50%); for apoptotic activity, in words: leukemic cells, summary in description
Procedure: as §3
Cells, were initially harvested at 4×10^5/mL (3 mL/well) cell density 24 well plate and incubated for 48 hours with increasing drug concentration. All compounds were solubilized in DMSO so that the final concentration of vehicle in culture was lower than 0.1%. At the end of treatment cell viability and apoptosis were evaluated by cytofluorimetric analysis using Anexin-V-Fluos staining (Annexin-V-FLUOS Staining Kit, Roche Molecular Biochemicals, Mannheim, Germany).
Necrotic cells, which are also Annexin-V positive, were identified by using Propidium iodide fluorochrome, that is capable of penetrating cell membranes of dying or dead cells and binding DNA.
Briefly, aliquots of cell suspensions (approximately 10^5 cells) washed in buffer PBS, were resuspended in 5 μl of binding buffer containing annexin V-fluorescein isothiocyanate (FITC) and propidium iodide; incubation was carried out for 15 minutes at room temperature, and cells were then analyzed by flow cytometry (FACScan Becton-Dickinson, San Jose, Calif.).
The IC50 values (i.e. the drug concentration necessary to reduce cell density or viability by 50% as compared to untreated control cultures) obtained by graphic extrapolation of the Anexin-V results and expressed as percentage of viable cells over control were reported In Table 2.
Data represent the percentage of viable cells as the function of drug concentration.

[5] = test system: acetylated H3 histone; assay: Histone deacetylase inhibition: western blot for acetylated histone H3 in cells incubated 6 hours with drug; conditions: for Acetyl-H3 densitometric value: 6 hours, untreated = 1; for H3 histone acetylating activity, in words / HDAC inhibitory / acetylating activity, in words (histone not specified): summary in description
Procedure: as §3, §4

In the case of CC1N=C(c2ccccc2)c2cc(C#CCCCC(=O)NO)ccc2N(C)C1=O (racemic) [Compound (II) racemic with R1 or R2 = Me, N-hydroxy-6-(1,3-dimethyl-2-oxo-5-phenyl-2,3-dihydro-1H-benzo[e][1,4]diazepin-7-yl)-5-hexynamide], the “increase of NBT positive cells, combination versus each agent alone” value ([1]; 3 μM compound + 20 nM ATRA) is reported as “up to 50 fold”, the “% of NBT+ cells” value ([1]; 3 μM compound + 20 nM ATRA) is reported as 72% and the “% of NBT+ cells” value ([1]; 3 μM compound alone) is reported as “≦1%”. The “% of CD11b+ cells” value ([2]; 3 μM compound + 20 nM ATRA) was 81.7%, the “% of CD11b+ cells” value ([2]; 3 μM compound alone) was 31.2% and the Acetyl-H4 densitometric value ([3]; 1 μM) was 1.67 arbitrary units. The Acetyl-H4 densitometric value ([3]; 2 μM) was 5.92 arbitrary units, the Acetyl-H4 densitometric value ([3]; 5 μM) was 16.29 arbitrary units and the IC50 ([4]; Homo sapiens, NB-4) was 3.4 µM. The “apoptotic activity, in words” value [4] was “good ability to induce apoptosis”, the Acetyl-H3 densitometric value ([5]; 1 μM) was 3.73 arbitrary units and the Acetyl-H3 densitometric value ([5]; 2 μM) was 4.61 arbitrary units. It also gave an Acetyl-H3 densitometric value ([5]; 5 μM) of 5.19 arbitrary units.
With CC1=C(/C=C/C(C)=C/C=C/C(C)=C/C(=O)O)C(C)(C)CCC1 [ATRA, all-trans-retinoc acid, reference compound] the “% of NBT+ cells” value ([1]; 20 nM ATRA alone) was 12% and 15%, the “% of NBT+ cells” value ([1]; 1 μM ATRA alone) was 78% and 80% and the “% of CD11b+ cells” value ([2]; 20 nM ATRA alone) was 13% and 10%. The “% of CD11b+ cells” value ([2]; 1 μM ATRA alone) was 80% and 71.3% and 72%.
CN1C(=O)C(NC(=O)CCCCCCC(=O)NO)N=C(c2ccccc2)c2ccccc21 (racemic) [Compound (IV) racemic, N1-hydroxy-N8-(1-methyl-2-oxo-5-phenyl-2,3-dihydro-1H-benzo[e][1,4]diazepin-3-yl)octanediamide] gave an Acetyl-H4 densitometric value ([3]; 0.5 μM) of 1 arbitrary units, an Acetyl-H4 densitometric value ([3]; 1 μM) of 5.78 arbitrary units and an Acetyl-H4 densitometric value ([3]; 2.5 μM) of 10.89 arbitrary units. The “H4 histone acetylating activity, in words” value [3] was “good acetylating activity of H4 histone”, the IC50 ([4]; Homo sapiens, NB-4) was 0.57 µM and the Acetyl-H3 densitometric value ([5]; 0.5 μM) was 2.67 arbitrary units. The Acetyl-H3 densitometric value ([5]; 1 μM) was 3.17 arbitrary units, the Acetyl-H3 densitometric value ([5]; 2.5 μM) was 3.38 arbitrary units and the “H3 histone acetylating activity, in words” value [5] was “reasonably good activity toward H3 histone”.
For C[C@@H]1N=C(c2ccccc2)c2cc(NC(=O)CCCCCCC(=O)NO)ccc2N(C)C1=O [Compound (III) S form with R1 or R2 = Me, (S)—N-1-(1,3-dimethyl-2-oxo-5-phenyl-2,3-dihydro-1H-benzo[e][1,4]diazepin-7-yl)-N8-hydroxyoctanediamide], the “% of NBT+ cells” value ([1]; 3 μM compound + 20 nM ATRA) was 40%, the “% of NBT+ cells” value ([1]; 3 μM compound alone) was 3% and the “effect on granulocytic differentiation / NBT positive cells, in words” value [1] was “strong synergistic increase of NBT positive cells”. The “% of CD11b+ cells” value ([2]; 3 μM compound + 20 nM ATRA) was 7.4%, the “% of CD11b+ cells” value ([2]; 3 μM compound alone) was 26% and the “effect on CD11b positive cells, in words” value ([2]; alone or in combination with 20 nM ATRA) was “no increase in CD11b positive cells”. It also gave an Acetyl-H4 densitometric value ([3]; 1 μM) of 3 arbitrary units, an Acetyl-H4 densitometric value ([3]; 2 μM) of 4.81 arbitrary units and an Acetyl-H4 densitometric value ([3]; 5 μM) of 12.59 arbitrary units. It also gave an Acetyl-H3 densitometric value ([5]; 1 μM) of 2.73 arbitrary units, an Acetyl-H3 densitometric value ([5]; 2 μM) of 2.65 arbitrary units and an Acetyl-H3 densitometric value ([5]; 5 μM) of 3.61 arbitrary units. The “HDAC inhibitory / acetylating activity, in words (histone not specified)” value [5] was “good inhibitory activity”.
CC1N=C(c2ccccc2)c2cc(NC(=O)CCCCCCC(=O)NO)ccc2N(C)C1=O (racemic) [Compound (III) racemic with R1 or R2 = Me, N1-hydroxy-N8-(1,3-dimethyl-2-oxo-5-phenyl-2,3-dihydro-1H-1,4-benzo[e][1,4]diazepin-7-yl)octanediamide] showed an Acetyl-H4 densitometric value ([3]; 2 μM) of 12.96 arbitrary units, an Acetyl-H4 densitometric value ([3]; 4 μM) of 23.7 arbitrary units and an Acetyl-H4 densitometric value ([3]; 10 μM) of 28.15 arbitrary units. For the same compound, the IC50 [4] was 4 µM, the Acetyl-H3 densitometric value ([5]; 2 μM) was 4.04 arbitrary units and the Acetyl-H3 densitometric value ([5]; 4 μM) was 4.92 arbitrary units. For the same compound, the Acetyl-H3 densitometric value ([5]; 10 μM) was 5.42 arbitrary units and the “HDAC inhibitory / acetylating activity, in words (histone not specified)” value [5] was “good inhibitory activity”.
With C[C@H]1N=C(c2ccccc2)c2cc(C#CCCCC(=O)NO)ccc2N(C)C1=O [Compound (II) R form with R1 or R2 = Me, (R)-6-(1,3-dimethyl-2-oxo-5-phenyl-2,3-dihydro-1H-benzo[e][1,4]diazepin-7-yl)-N-hydroxyhex-5-ynamide] the “% of NBT+ cells” value ([1]; 1.5 μM compound + 20 nM ATRA) was 13.1%, the “% of NBT+ cells” value ([1]; 1.5 μM compound alone) was “≦1%” and the “effect on granulocytic differentiation / NBT positive cells, in words” value [1] was “no appreciable effect on granulocytic differentiation”. For the same compound, the “% of CD11b+ cells” value ([2]; 1.5 μM compound + 20 nM ATRA) was 19.8%, the “% of CD11b+ cells” value ([2]; 1.5 μM compound alone) was 14.2% and the Acetyl-H4 densitometric value ([3]; 0.5 μM) was 0 arbitrary units. For the same compound, the Acetyl-H4 densitometric value ([3]; 1 μM) was 0 arbitrary units, the Acetyl-H4 densitometric value ([3]; 2.5 μM) was 0 arbitrary units and the “H4 histone acetylating activity, in words” value [3] was “does not show hyperacetylating activity on H4 histones”. For the same compound, the Acetyl-H3 densitometric value ([5]; 0.5 μM) was 2.5 arbitrary units, the Acetyl-H3 densitometric value ([5]; 1 μM) was 2.54 arbitrary units and the Acetyl-H3 densitometric value ([5]; 2.5 μM) was 3.69 arbitrary units. The “H3 histone acetylating activity, in words” value [5] was “good activity toward H3 histone”.
For CN1C(=O)CN=C(c2ccccc2)c2cc(NC(=O)CCCCCCC(=O)NO)ccc21 [Compound (III) R1 and R2 = hydrogen, N1-(1-methyl-2-oxo-5-phenyl-2,3-dihydro-1H-benzo[e][1,4]diazepin-7-yl)-N8-hydroxyoctanediamide], the Acetyl-H4 densitometric value ([3]; 1 μM) was 2.39 arbitrary units, the Acetyl-H4 densitometric value ([3]; 2 μM) was 6.63 arbitrary units and the IC50 ([4]; Homo sapiens, NB-4) was 3 µM. The “apoptotic activity, in words” value [4] was “good acetylating and apoptotic activities”, the Acetyl-H3 densitometric value ([5]; 1 μM) was 2.84 arbitrary units and the Acetyl-H3 densitometric value ([5]; 2 μM) was 3.23 arbitrary units. For the same compound, the “HDAC inhibitory / acetylating activity, in words (histone not specified)” value [5] was “good acetylating and apoptotic activities”.
